According to patent US20100029620A1, “SUBSTITUTED TRIAZOLINE, TETRAZOLONE AND IMIDAZOLONE DERIVATIVES FOR USE AS A MEDICINE” (JANSSEN PHARMACEUTICA N.V., priority 2004, published 2010):

How the values were obtained:
[1] = target: T1, human adrenergic-α2C receptor (Homo sapiens, UniProt P18825); test: Radioligand binding experiment for α2C-adrenoceptor ([3H]-raulwolscine competition, CHO cell membranes); conditions: [3H]raulwolscine 1 nM, membranes of CHO cells transfected with human α2C receptor; for IC50: read-out: pIC50 α2C (converted)
T1 construct: expressed in transfected cells; membrane preparation
T1 sequence (P18825 1-462): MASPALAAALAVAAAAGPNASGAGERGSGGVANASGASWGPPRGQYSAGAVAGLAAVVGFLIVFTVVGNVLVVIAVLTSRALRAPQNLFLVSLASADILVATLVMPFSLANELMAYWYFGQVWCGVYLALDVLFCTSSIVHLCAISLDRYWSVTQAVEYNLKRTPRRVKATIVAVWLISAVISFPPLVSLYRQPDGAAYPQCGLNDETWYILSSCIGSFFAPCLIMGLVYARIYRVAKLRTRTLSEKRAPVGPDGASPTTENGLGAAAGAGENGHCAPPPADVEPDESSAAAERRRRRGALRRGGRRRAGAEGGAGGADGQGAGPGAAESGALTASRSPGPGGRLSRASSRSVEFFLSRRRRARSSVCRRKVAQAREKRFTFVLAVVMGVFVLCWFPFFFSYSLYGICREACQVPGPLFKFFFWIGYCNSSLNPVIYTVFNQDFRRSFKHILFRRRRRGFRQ
Protocol: (§1) The interaction of the compounds of Formula (I) with α2C-adrenoceptor receptors was assessed in in vitro radioligand binding experiments. In general, a low concentration of a radioligand with a high binding affinity for a particular receptor or transporter is incubated with a sample of a tissue preparation enriched in a particular receptor or transporter or with a preparation of cells expressing cloned human receptors in a buffered medium. During the incubation, the radioligand binds to the receptor or transporter. When equilibrium of binding is reached, the receptor bound radioactivity is separated from the non-bound radioactivity, and the receptor- or transporter-bound activity is counted. The interaction of the test compounds with the receptor is assessed in competition binding experiments. Various concentrations of the test compound are added to the incubation mixture containing the receptor- or transporter preparation and the radioligand. The test compound in proportion to its binding affinity and its concentration inhibits binding of the radioligand. The radioligand used for […] receptor binding was [^3H]-raulwolscine.
(§2) CHO cells, stabile transfected with human adrenergic-α2A-, -α2B or α2C receptor cDNA, were cultured in Dulbecco's Modified Eagle's Medium (DMEM)/Nutrient mixture Ham's F12 (ratio 1:1)(Gibco, Gent-Belgium) supplemented with 10% heat inactivated fetal calf serum (Life Technologies, Merelbeke-Belgium) and antibiotics (100 IU/ml penicillin G, 100 μg/ml streptomycin sulphate, 110 μg/ml pyruvic acid and 100 μg/ml L-glutamine). One day before collection, cells were induced with 5 mM sodiumbutyrate. Upon 80-90% of confluence, cells were scraped in phosphate buffered saline without Ca^2+ and Mg^2+ and collected by centrifugation at 1500×g for 10 min. The cells were homogenised in Tris-HCl 50 mM using an Ultraturrax homogenizer and centrifuged for 10 min at 23,500×g. The pellet was washed once by resuspension and rehomogenization and the final pellet was resuspended in Tris-HCl, divided in 1 ml aliquots and stored at −70° C.
(§3) Membranes were thawed and re-homogenized in incubation buffer (glycylglycine 25 mM, pH 8.0). In a total volume of 500 μl, 2-10 μg protein was incubated with [^3H]raulwolscine (NET-722) (New England Nuclear, USA) (1 nM final concentration) with or without competitor for 60 min at 25° C. followed by rapid filtration over GF/B filter using a Filtermate196 harvester (Packard, Meriden, Conn.). Filters were rinsed extensively with ice-cold rinsing buffer (Tris-HCl 50 mM pH 7.4). Filter-bound radioactivity was determined by scintillation counting in a Topcount (Packard, Meriden, CT) and results were expressed as counts per minute (cpm). Non-specific binding was determined in the presence of 1 μM oxymetazoline for hα2A- and hα2B receptors and 1 μM spiroxatrine for hα2C receptors.
(§4) Data from assays in the presence of compound were calculated as a percentage of total binding measured in the absence of test compound. Inhibition curves, plotting percent of total binding versus the log value of the concentration of the test compound, were automatically generated, and sigmoidal inhibition curves were fitted using non-linear regression. The pIC50 values of test compounds were derived from individual curves.

[2] = target: T2, human adrenergic-α2A receptor (Homo sapiens, UniProt P08913); test: Radioligand binding experiment for α2A-adrenoceptor ([3H]-raulwolscine competition, CHO cell membranes); conditions: [3H]raulwolscine 1 nM, membranes of CHO cells transfected with human α2A receptor; read-out: pIC50 α2A (converted)
T2 construct: expressed in transfected cells; membrane preparation
T2 sequence (P08913 1-465): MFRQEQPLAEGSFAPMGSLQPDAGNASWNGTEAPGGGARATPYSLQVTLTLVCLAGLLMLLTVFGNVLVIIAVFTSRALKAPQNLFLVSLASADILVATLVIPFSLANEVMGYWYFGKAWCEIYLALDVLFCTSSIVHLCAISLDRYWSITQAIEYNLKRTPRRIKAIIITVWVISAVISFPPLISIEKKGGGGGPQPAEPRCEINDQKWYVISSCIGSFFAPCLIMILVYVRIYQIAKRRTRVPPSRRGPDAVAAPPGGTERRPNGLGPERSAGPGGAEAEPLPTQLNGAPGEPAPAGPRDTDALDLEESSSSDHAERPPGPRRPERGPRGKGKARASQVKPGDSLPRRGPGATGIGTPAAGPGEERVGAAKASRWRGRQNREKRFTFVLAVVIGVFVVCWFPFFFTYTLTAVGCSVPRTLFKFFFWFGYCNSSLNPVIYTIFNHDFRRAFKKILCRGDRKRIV
Protocol: as §1, §2, §3, §4

[3] = target: T3, human adrenergic-α2B receptor (Homo sapiens, UniProt P18089); test: Radioligand binding experiment for α2B-adrenoceptor ([3H]-raulwolscine competition, CHO cell membranes); conditions: [3H]raulwolscine 1 nM, membranes of CHO cells transfected with human α2B receptor; read-out: pIC50 α2B (converted)
T3 construct: expressed in transfected cells; membrane preparation
T3 sequence (P18089 1-450): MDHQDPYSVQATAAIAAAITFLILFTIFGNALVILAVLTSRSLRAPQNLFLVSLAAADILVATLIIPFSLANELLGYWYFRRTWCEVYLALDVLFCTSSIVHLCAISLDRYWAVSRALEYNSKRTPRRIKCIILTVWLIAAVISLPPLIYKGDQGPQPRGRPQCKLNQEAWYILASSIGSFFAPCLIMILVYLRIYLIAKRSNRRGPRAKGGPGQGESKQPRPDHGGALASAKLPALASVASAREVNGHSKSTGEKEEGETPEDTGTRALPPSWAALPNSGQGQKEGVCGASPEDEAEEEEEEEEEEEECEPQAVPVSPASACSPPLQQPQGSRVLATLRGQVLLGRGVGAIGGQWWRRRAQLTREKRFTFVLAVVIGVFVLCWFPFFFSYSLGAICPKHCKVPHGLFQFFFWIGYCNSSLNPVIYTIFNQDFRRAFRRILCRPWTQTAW
Protocol: as §1, §2, §3, §4

IC50 [1] [nM]	IC50 [2] [nM]	IC50 [3] [nM]	pIC50 α2C [1]	SMILES
2	39.8	39.8		O=c1n(-c2ccc(NCCN3CCCC3)cc2)cnn1CCNCCOc1ccccc1 [compound 88]
2.51	39.8	50.1		O=c1n(CC2CCN(CCOc3ccccc3)CC2)cnn1CCN1CCCCC1 [compound 66]
10	251	200		O=c1n(-c2ccc3c(c2)CCN(Cc2ccc(F)cc2)C3)cnn1CCNCCOc1ccccc1 [compound 99]
20	501	398		O=c1n(CCNCCOc2ccccc2)nnn1-c1ccc(CN2CCC(O)CC2)cc1 [compound 107]
0.631	50.1	12.6		O=c1n(-c2ccc(CN3CCCCC3)cc2)cnn1CC1CCN(CCOc2ccccc2)CC1 [compound 64]
31.6	398	631		C/C(=C\c1ccccc1)CN1CCC(n2cnn(CCN3CCCCC3)c2=O)CC1 [compound 79]
7.94	158	7.94		CN1CCN(c2ccc(-n3cnn(CC4CCN(CCOc5ccccc5)CC4)c3=O)cc2)CC1 [compound 51]
3.16	39.8	200		O=c1n(-c2ccc(CNCc3ccccn3)cc2)cnn1CCNCCOc1ccccc1 [compound 96]
3.98	63.1	6.31		CN1CCN(CCCNc2ccc(-n3cnn(CC4CCN(CCOc5ccccc5)CC4)c3=O)cc2)CC1 [compound 49]
25.1	398	100		O=c1n(CC2CCN(CCOc3ccccc3)CC2)cnn1CCN1CCOCC1 [compound 67]
2	31.6	39.8		C/C(=C\c1ccccc1)CN1CCC(n2ncn(-c3ccc(CN4C(=O)c5ccccc5C4=O)cc3)c2=O)CC1 [compound 109]
6.31	126	158		CN(Cc1ccccc1)C(=O)Cn1cnn(CC2CCN(CCOc3ccccc3)CC2)c1=O [compound 46]
2	50.1	251		O=c1n(-c2ccc3c(c2)CCNC3)cnn1CCNCCOc1ccccc1 [compound 97]
0.501	39.8	10		O=c1n(-c2ccc(CN3CCCC3)cc2)cnn1CC1CCN(CCOc2ccccc2)CC1 [compound 62]
1.58	15.8	126		O=c1n(-c2ccc(CNCCN3CCCCC3)cc2)cnn1CCNCCOc1ccccc1 [compound 95]
5.01	100	3.98		CC(C)N1CCN(c2ccc(-n3cnn(CC4CCN(CCOc5ccccc5)CC4)c3=O)cc2)CC1 [compound 53]
0.794	3.98	0.631		CN(C)CCNc1ccc(-n2cnn(CCC3CCN(CCOc4ccccc4)CC3)c2=O)cc1 [compound 40]

Continued, compound first:

SMILES	IC50 [1] [nM]	IC50 [2] [nM]	IC50 [3] [nM]	pIC50 α2C [1]
NCc1ccc(Cn2cnn(C3CCN(CCOc4ccccc4)CC3)c2=O)cc1 [compound 37]	3.98	39.8	25.1	
CC(NCCOc1ccccc1)C(C)n1ncn(-c2ccc(N3CCN(c4ccc(O)cc4)CC3)cc2)c1=O (racemic) [compound 5]	10	501	501	
O=c1n(-c2ccc(CN3CCCC3)cc2)cnn1CCNCCOc1ccccc1 [compound 14]	1	50.1	79.4	
O=c1n(CCN2CCCCC2)cnn1CCNCCOc1ccccc1 [compound 16]	10	158	1580	
NCc1ccc(-n2cnn(C3CCN(CCOc4ccccc4)CC3)c2=O)cc1 [compound 36]	12.6	39.8	79.4	
O=c1n(-c2ccc(N3CCN(Cc4ccccc4)CC3)cc2)cnn1CCNCCOc1ccccc1 [compound 3]	15.8	398	251	
C/C(=C\c1ccccc1)CN1CCC(n2cnn(CCNCCOc3ccccc3)c2=O)CC1 [compound 29]	3.98	100	126	
COc1ccc(N2CCN(c3ccc(-n4cnn(CCNCCOc5ccccc5)c4=O)cc3)CC2)cc1 [compound 8]	15.8	631	158	
C/C(=C\c1ccccc1)CN1CCC(n2cnn(-c3ccc(CN)cc3)c2=O)CC1 [compound 33]	15.8	15.8	63.1	
C/C(=C\c1ccccc1)CN1CCC(n2cnn(CCNCCOc3ccccc3)c2=O)CC1 [compound 28]		126	200	8.4
O=c1n(-c2ccc(CN3CCN(c4ccccc4)CC3)cc2)cnn1CCNCCOc1ccccc1 [compound 2]	25.1	200	200	
C/C(=C\c1ccccc1)CN1CCC(n2cnn(Cc3ccc(CN)cc3)c2=O)CC1 [compound 32]	12.6	126	50.1	
COc1ccc(N2CCN(c3ccc(-n4cnn(C(C)C(C)NCCOc5ccccc5)c4=O)cc3)CC2)cc1 (stereo not drawn) [compound 10]	15.8	631	501	
CN(C)CCNc1ccc(-n2cnn(CC3CCN(CCOc4ccccc4)CC3)c2=O)cc1 [compound 38]	1.58	25.1	3.98	
CC(NCCOc1ccccc1)C(C)n1ncn(-c2ccc(N3CCN(c4ccc(O)cc4)CC3)cc2)c1=O (single isomer, unassigned) [compound 4]	6.31	2510	200	
